PubChem BioAssay (NCI)
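In this assay, cells in 96-well plates receive the compound at five concentrations for 48 hours. Endpoints are linearly interpolated between the surrounding concentrations. TGI: total growth inhibition.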 Where a SMILES comes first, the peptide text is derived from it. [ ]: non-standard residue; d: D form. The star is where a group is joined. ξ: configuration not given here. ξPhe(4-NO2) = NC(Cc1ccc([N+](=O)[O-])cc1)C(=O)O; Boc = CC(C)(C)OC(=O)*

Assays:
Experiment in all cases: NCI anticancer screen, dose series, 48 h
HCT-116 colon = tested on: HCT-116 colon
LOX IMVI melanoma = tested on: LOX IMVI melanoma
M14 melanoma = tested on: M14 melanoma
OVCAR-8 ovarian = tested on: OVCAR-8 ovarian
RXF 393 renal = tested on: RXF 393 renal
SK-MEL-2 melanoma = tested on: SK-MEL-2 melanoma
SR leukemia = tested on: SR leukemia
UO-31 renal = tested on: UO-31 renal
NCI-H226 lung = tested on: NCI-H226 lung

| Compound | TGI (HCT-116 colon) [µM] | TGI (LOX IMVI melanoma) [µM] | TGI (M14 melanoma) [µM] | TGI (OVCAR-8 ovarian) [µM] | TGI (RXF 393 renal) [µM] | TGI (SK-MEL-2 melanoma) [µM] | TGI (SR leukemia) [µM] | TGI (UO-31 renal) [µM] | TGI (NCI-H226 lung) [µM] |
| --- | --- | --- | --- | --- | --- | --- | --- | --- | --- |
| NS(=O)(=O)c1nnc(NC(=O)/C=C/C(=O)O)s1 | > 100 | > 100 | > 100 | > 100 | > 100 | > 100 | > 100 | > 100 |  |
| CC1(C)/C(=N\Nc2ccc([N+](=O)[O-])cc2[N+](=O)[O-])C2CCC1C2 (stereo not given) | > 100 | > 100 | > 100 | > 100 |  | > 100 | > 100 | > 100 | > 100 |
| Clc1nc(Nc2nc3ccccc3[nH]2)nc(Cl)c1-c1ccccc1 | > 100 |  | 98 | 69.4 | 35.6 | 55.9 | > 100 | 42.4 | 46.4 |
| COc1ccc(C(=O)N(Cc2cccnc2)C(=S)N(Cc2cccnc2)C(=O)c2ccc(OC)cc2)cc1 | > 100 | > 100 | > 100 | > 100 | > 100 | > 100 | > 100 |  | > 100 |
| COc1ccc(NC(=S)Nc2c(C)n(C)n(-c3ccccc3)c2=O)cc1 | > 100 | > 100 | > 100 | > 100 | > 100 |  |  | > 100 | > 100 |
| COC(=O)/C=C/c1cnc2c(c1)oc(=O)n2C | > 100 | > 100 | > 100 | > 100 |  | > 100 | > 100 | > 100 | > 100 |
| O=P(O)(O)CC1OC(CO)C(O)C1O (stereo not given) | > 100 | > 100 | > 100 | > 100 | > 100 | > 100 |  | > 100 | > 100 |
| O=c1oc2ccccc2n1CCCn1c(=O)oc2ccccc21 | > 100 | > 100 | > 100 | > 100 | > 100 | > 100 | > 100 |  | > 100 |
| COc1ccc(/C=C2/SC(c3c(O)ccc4ccccc34)N(NC(=O)CCCCCCCCC(=O)NN3C(=O)/C(=C\c4ccc(OC)c(OC)c4)SC3c3c(O)ccc4ccccc34)C2=O)cc1OC (stereo not given) | > 100 | 12.8 |  | 20.2 | > 79.7 | > 41.6 | 1.62 |  | 15.9 |
| CCCCN1CCC(O)(c2cc(C(=O)O)[nH]c2-c2cc(C)no2)C1=O (stereo not given) | > 100 |  | > 100 | > 100 | > 100 | > 100 |  | > 100 |  |
| C(#C[C@@]12CCC[C@@H]1N(Cc1ccccc1)CO2)c1ccc2c(c1)OCO2 | > 100 |  | > 100 | > 100 | > 100 | > 100 |  | > 100 | > 100 |
| COc1cc(OC2OC(CO)C(O)C(O)C2O)c2c(c1)O[C@@H]1[C@H](O)Oc3cc(OC)c(OC)cc3[C@]1(O)C2=O (stereo not given in full) | > 25 | > 25 | > 25 | > 25 |  | > 25 | > 25 | > 25 | > 25 |
| C=CC(C)(C)n1cc(C2=C(O)C(=O)C(c3c(CC=C(C)C)[nH]c4ccccc34)=C(O)C2=O)c2ccccc21 | 5.59 | 5.38 | 4.24 | 4.57 | 6.05 | 3.41 |  | 1.9 | 3.64 |
| NC(Cc1ccc(O)cn1)C(=O)O (stereo not given) | > 100 | > 100 |  | > 100 | > 100 |  | > 100 | > 100 | > 100 |
| Cc1ccc2c(=O)c(C(=O)NNC(=S)NC3CCCCC3)c[nH]c2n1 | > 100 | > 100 | > 100 | > 100 | > 100 | > 100 |  | > 100 | > 100 |
| CN(C)c1c(C2CC(O)C(CO)O2)c(=O)c1=O (stereo not given) | > 100 | > 100 | > 100 | > 100 |  | > 100 | > 100 | > 100 | > 100 |
| CC(=O)OCCCCn1cnc2c(Cl)nc(Nc3ccccc3)nc21 | > 100 | > 100 |  | > 100 |  |  | > 100 | > 100 | > 100 |
| CCNC(=O)CNC(=O)C(Cc1ccc([N+](=O)[O-])cc1)NC(=O)OC(C)(C)C (stereo not given) (Boc-[ξPhe(4-NO2)]-Gly-NHEt) | > 100 | > 100 | > 100 | > 100 | > 100 |  | > 100 | > 100 | > 100 |
| COc1ccc(NC(=O)CC(=O)N2N=C(C)C(N=Nc3ccc(C(=O)O)cc3)C2=O)cc1 (stereo not given) | > 100 | > 100 | > 100 | > 100 | > 100 | > 100 |  | > 100 |  |
| C=CCN(c1cc(OC)c2c(c1[N+](=O)[O-])C(C)(SC)C(=O)N2)S(C)(=O)=O (stereo not given) | > 100 | > 100 |  | > 100 |  | > 100 | > 100 | > 100 | > 100 |
| OC1(C2(c3ccc(Cl)cc3)CCCC2)c2ccccc2C2=NCCN21 (stereo not given) | 24.4 | 28.3 | 28.6 | 32 | 9.51 |  | 37.9 | 24.1 | 33 |
| S=C(S)N1CCN(c2ccccc2)CC1 | > 100 | > 100 | > 100 | > 100 | > 100 | > 100 |  |  |  |
| OC[C@@H](O)[C@H](O)[C@@H](O)/C=N/Nc1ccc(Cl)nn1 | > 100 | > 100 | > 100 | > 100 | > 100 | > 100 |  |  |  |
| Cc1ccc(N2C3=C(CC4=C2CC(C)(C)CC4=O)C(=O)CC(C)(C)C3)cc1 | > 100 | > 100 | > 100 | > 100 | > 100 |  | > 100 | > 100 | > 100 |
| C/C(=N\Nc1nc2ccccc2o1)c1cc2ccccc2cn1 | 15.8 |  |  |  | 4.87 | 12.2 |  | 0.271 |  |
| CN(/N=C/c1ccccc1C(=O)O)C1=NCCCCN1 | > 100 | > 100 | > 100 | > 100 |  | > 100 | > 100 | > 100 | > 100 |
